Laboratory results as given in patent US9527859B2, “Amidopyridine derivative and use thereof” (Mitsubishi Tanabe Pharma Corporation, priority 2012, dated 2016).
pIC50: −log10 of the molar value.

Tested on: production of IL-17 in mouse splenocytes stimulated by recombinant mouse interleukin-23
Experiment: Production of IL-17 induced when mouse splenocytes were stimulated by rm-IL-23 (ELISA)
Format: cell-based
Details: Splenocyte, inhibition of IL-17 production, rm-IL-23 1 nmol/L, 72 hours
Procedure: Effect on Production of IL-17 Induced when Mouse Splenocytes were Stimulated by Recombinant Mouse Interleukin-23 (rm-IL-23)
RPMI1640 media (Sigma-Aldrich) were used as a medium, to which 50 units/mL penicillin G potassium/50 μg/mL streptomycin (Gibco) and […] 2-mercaptoethanol (Sigma-Aldrich) were added, and then thereto was added 10% of fetal calf serum (FCS; Cell Culture Technology) which was treated at 56° C. for 30 minutes to be inactivated, and the mixture was used in the Test. The test compound was dissolved in dimethylsulfoxide and then diluted with 10% FCS-containing RPMI1640 medium to a desired concentration to be used. The spleens were aseptically taken out from 6 to 7 week-old male DBA/1J mice (Charles River Japan, Inc.) and a single cell suspension of splenocytes was prepared, which was hemolyzed by hypotonic treatment with a mixed solution of 0.83% aqueous solution of ammonium chloride and Tris-HCl buffer of pH 7.65 (9:1). A cell suspension prepared by using 10% FCS-containing RPMI1640 medium was added to a flat-bottomed 96 well microtestplate (Coaster) at 2×10^5 cells/well. Thereto were added test compounds and rm-IL-23 (R&D systems) were diluted with a medium to 1 to 1,000 nmol/L and 1 nmol/L of the final concentration, respectively, and the mixture was cultured at 37° C., 5% carbon dioxide and 95% air for 72 hours. After completion of the culture, culture supernatant was sampled and production amounts of IL-17 therein were determined by ELISA method. After sampling the supernatant, WST-8 (Seikagaku Corporation) was added at 10 μl/well and cultured at 37° C., 5% carbon dioxide and 95% air for 4 hours. Then, absorbance (O.D.: Optical Density) at 450 nm was measured by a microplate reader and the value was adopted as an index of cell survivability. An inhibition rate was calculated according to the following formula on the basis of an average of production amounts of IL-17 and O.D. values of the well containing a test compound of each concentration. Inhibition (%)=(1−(Average value of well with addition of test compound)/(Average value of well without addition of test compound))×100
Based on the dose-response curve obtained by plotting the inhibition rate in the longitudinal axis and the concentration in the horizontal axis, the concentration of the compound which inhibits the level to 50% of the value of the control group (IC50) (nmol/L) was determined by linear regression analysis.

Structure (SMILES)	pIC50
Cc1c(C(=O)Nc2cnc(N3CCC(O)CC3)c(C3CC3)c2)cnn1-c1ccc(Cl)cc1Cl [Example 9, N-[5-cyclopropyl-6-(4-hydroxypiperidin-1-yl)pyridin-3-yl]-1-(2,4-dichlorophenyl)-5-methyl-1H-pyrazole-4-carboxamide]	6.48
N#Cc1cc(NC(=O)c2cnn(-c3ccc(Cl)cc3)c2C2CC2)cnc1N1CCC(CCO)CC1 [Example 22, 1-(4-chlorophenyl)-N-{5-cyano-6-[4-(2-hydroxyethyl)piperidin-1-yl]pyridin-3-yl}-5-cyclopropyl-1H-pyrazole-4-carboxamide]	6.71
CC(=O)OCCC1CCN(c2ncc(NC(=O)c3cnn(-c4ccc(F)cc4)c3C)cc2C#N)CC1 [Example 25, acetic acid [2-(1-{3-cyano-5-[1-(4-fluorophenyl)-5-methyl-1H-pyrazole-4-carboxamide]pyridin-2-yl}piperidin-4-yl)ethyl]ester]	6.79
Cc1cc(NC(=O)c2cnn(-c3ccccn3)c2C)cnc1N1CCC(CC(C)(C)O)CC1 [Example 26, N-{6-[4-(2-hydroxy-2-methylpropyl)piperidin-1-yl]-5-methylpyridin-3-yl}-5-methyl-1-(pyridin-2-yl)-1H-pyrazole-4-carboxamide]	6.76
Cc1cc(NC(=O)c2cnn(-c3ccc(F)c(F)c3)c2C)cnc1N1CCC(C(C)O)CC1 (stereo not drawn) [Example 27, 1-(3,4-difluorophenyl)-N-{6-[4-(1-hydroxyethyl)piperidin-1-yl]-5-methylpyridin-3-yl}-5-methyl-1H-pyrazole-4-carboxamide]	6.77
Cc1c(C(=O)Nc2cnc(N3CCC(=O)CC3)c(C#N)c2)cnn1-c1ccc(Cl)cc1 [Example 29, 1-(4-chlorophenyl)-N-[5-cyano-6-(4-oxopiperidin-1-yl)pyridin-3-yl]-5-methyl-1H-pyrazole-4-carboxamide]	6.77
Cc1c(C(=O)Nc2cnc(N3CCC(CCO)CC3)c(C#N)c2)cnn1-c1ccc(F)cc1 [Example 30, N-{5-cyano-6-[4-(2-hydroxyethyl)piperidin-1-yl]pyridin-3-yl}-1-(4-fluorophenyl)-5-methyl-1H-pyrazole-4-carboxamide]	6.76
COCCC1CCN(c2ncc(NC(=O)c3cnn(-c4ccc(C(F)(F)F)cn4)c3C)cc2C)CC1 [Example 31]	6.80
COCC1CCN(c2ncc(NC(=O)c3cnn(-c4ccc(C(F)(F)F)cc4)c3C)cc2C)CC1 [Example 33, N-{6-[4-(1-methoxymethyl)piperidin-1-yl]-5-methylpyridin-3-yl}-5-methyl-1-[4-(trifluoromethyl)phenyl]-1H-pyrazole-4-carboxamide]	6.82
COc1ccc(-n2ncc(C(=O)Nc3cnc(N4CCC(C(C)(C)F)CC4)c(C)c3)c2C)cc1 [Example 35, N-{6-[4-(1-fluoro-1-methylethyl)piperidin-1-yl]-5-methylpyridin-3-yl}-1-(4-methoxyphenyl)-5-methyl-1H-pyrazole-4-carboxamide]	6.82
Cc1c(C(=O)Nc2cnc(N3CCC(O)CC3)c(Cl)c2)cnn1-c1ccc(Cl)cc1 [Example 36, N-[5-chloro-6-(4-hydroxypiperidin-1-yl)pyridin-3-yl]-1-(4-chlorophenyl)-5-methyl-1H-pyrazole-4-carboxamide]	6.85
Cc1cc(NC(=O)c2cnn(-c3ccc(Cl)cn3)c2C)cnc1N1CCC(C(C)(C)F)CC1 [Example 38, 1-(5-chloropyridin-2-yl)-N-{6-[4-(1-fluoro-1-methylethyl)piperidin-1-yl]-5-methylpyridin-3-yl}-5-methyl-1H-pyrazole-4-carboxamide]	6.85
CC(=O)OCCC1CCN(c2ncc(NC(=O)c3cnn(-c4ccc(Cl)cc4)c3C)cc2C#N)CC1 [Example 40, acetic acid [2-(1-{5-[1-(4-chlorophenyl)-5-methyl-1H-pyrazole-4-carboxamide]-3-cyanopyridin-2-yl}piperidin-4-yl)ethyl]ester]	6.94

The next lines start with the values.

pIC50	Structure (SMILES)
6.53	Cc1cc(NC(=O)c2cnn(-c3ccc(C(F)(F)F)cc3)c2C)cnc1N1CCC(O)CC1 [Example 15, N-[6-(4-hydroxypiperidin-1-yl)-5-methylpyridin-3-yl]-5-methyl-1-[4-(trifluoromethyl)phenyl]-1H-pyrazole-4-carboxamide]
6.58	COC1CCN(c2ncc(NC(=O)c3cnn(-c4ccc(Cl)cc4)c3C)cc2C)CC1 [Example 16, 1-(4-chlorophenyl)-N-[6-(4-methoxypiperidin-1-yl)-5-methylpyridin-3-yl]-5-methyl-1H-pyrazole-4-carboxamide]
6.67	CC(=O)OC1CCN(c2ncc(NC(=O)c3cnn(-c4ccc(Cl)cc4)c3C)cc2C#N)CC1 [Example 19, acetic acid (1-{5-[1-(4-chlorophenyl)-5-methyl-1H-pyrazole-4-carboxamide]-3-cyanopyridin-2-yl}piperidin-4-yl)ester]
6.71	Cc1c(C(=O)Nc2cnc(N3CCC(O)CC3)c(C#N)c2)cnn1-c1ccc(C(C)(C)C)cc1 [Example 23, 1-(4-tert-butylphenyl)-N-[5-cyano-6-(4-hydroxypiperidin-1-yl)pyridin-3-yl]-5-methyl-1H-pyrazole-4-carboxamide]
6.74	Cc1cc(NC(=O)c2ccn(-c3ccc(C#N)cn3)c2)cnc1N1CCC(C(C)(C)F)CC1 [Example 24, 1-(5-cyanopyridin-2-yl)-N-{6-[4-(1-fluoro-1-methylethyl)piperidin-1-yl]-5-methylpyridin-3-yl}-1H-pyrrole-3-carboxamide]
6.77	Cc1cc(NC(=O)c2cnn(-c3ccc(F)cc3)c2C)cnc1N1CCC(C(C)O)CC1 (stereo not drawn) [Example 28, 1-(4-fluorophenyl)-N-{6-[4-(1-hydroxyethyl)piperidin-1-yl]-5-methylpyridin-3-yl}-5-methyl-1H-pyrazole-4-carboxamide]
6.81	Cc1ccc(-n2ncc(C(=O)Nc3cnc(N4CCC(C(C)(C)F)CC4)c(C)c3)c2C)cc1 [Example 32, N-{6-[4-(1-fluoro-1-methylethyl)piperidin-1-yl]-5-methylpyridin-3-yl}-5-methyl-1-(4-methylphenyl)-1H-pyrazole-4-carboxamide]
6.82	Cc1cc(NC(=O)c2cnn(-c3ccc(F)cc3)c2C)cnc1N1CCC(C(C)(C)F)CC1 [Example 34, N-{6-[4-(1-fluoro-1-methylethyl)piperidin-1-yl]-5-methylpyridin-3-yl}-1-(4-fluorophenyl)-5-methyl-1H-pyrazole-4-carboxamide]
6.85	N#Cc1cc(NC(=O)c2ccn(-c3ccc(F)cc3)c2)cnc1N1CCC(CCO)CC1 [Example 37, N-{5-cyano-6-[4-(2-hydroxyethyl)piperidin-1-yl]pyridin-3-yl}-1-(4-fluorophenyl)-1H-pyrrole-3-carboxamide]
6.95	Cc1cc(NC(=O)c2cnn(-c3ccc(Cl)cc3)c2C)cnc1N1CCC(C(C)(C)F)CC1 [Example 41, 1-(4-chlorophenyl)-N-{6-[4-(1-fluoro-1-methylethyl)piperidin-1-yl]-5-methylpyridin-3-yl}-5-methyl-1H-pyrazole-4-carboxamide]
6.98	Cc1c(C(=O)Nc2cnc(N3CCC(CCO)CC3)c(C3CC3)c2)cnn1-c1ccc(Cl)cc1 [Example 42, 1-(4-chlorophenyl)-N-{5-cyclopropyl-6-[4-(2-hydroxyethyl)piperidin-1-yl]pyridin-3-yl}-5-methyl-1H-pyrazole-4-carboxamide]
